According to the supplement of paper PMC10307832:

Key:
Experiment in all cases: relative viability (nuclei count vs DMSO), 5 days (fraction); higher = more cells survive
Palbociclib + Crizotinib = compound: CC(=O)c1c(C)c2cnc(Nc3ccc(N4CCNCC4)cn3)nc2n(C2CCCC2)c1=O [Palbociclib] + C[C@@H](Oc1cc(-c2cnn(C3CCNCC3)c2)cnc1N)c1c(Cl)ccc(F)c1Cl [Crizotinib] (partner 1 µM)
Procedure, shortened: (§1)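 Relative viability equals treated-well nuclei counts divided by vehicle-well nuclei counts. Counts came from 4× images of lung cancer cell lines grown in 1536-well plates for 5 days after pin-tool dosing on the day after seeding. Dosing used one drug alone or a fixed anchor-drug dose plus five library-drug doses (not always all listed) in √10 steps, and values are medians of duplicate plates.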

Palbociclib + Bortezomib = compound: CC(=O)c1c(C)c2cnc(Nc3ccc(N4CCNCC4)cn3)nc2n(C2CCCC2)c1=O [Palbociclib] + CC(C)C[C@H](NC(=O)[C@H](Cc1ccccc1)NC(=O)c1cnccn1)B(O)O [Bortezomib] (partner 0.002 µM)
Procedure, shortened: as §1

Palbociclib + Pemetrexed = compound: CC(=O)c1c(C)c2cnc(Nc3ccc(N4CCNCC4)cn3)nc2n(C2CCCC2)c1=O [Palbociclib] + Nc1nc2[nH]cc(CCc3ccc(C(=O)N[C@@H](CCC(=O)O)C(=O)O)cc3)c2c(=O)[nH]1 [Pemetrexed] (partner 0.2 µM)
Procedure, shortened: as §1

Palbociclib + Navitoclax = compound: CC(=O)c1c(C)c2cnc(Nc3ccc(N4CCNCC4)cn3)nc2n(C2CCCC2)c1=O [Palbociclib] + CC1(C)CCC(c2ccc(Cl)cc2)=C(CN2CCN(c3ccc(C(=O)NS(=O)(=O)c4ccc(N[C@H](CCN5CCOCC5)CSc5ccccc5)c(S(=O)(=O)C(F)(F)F)c4)cc3)CC2)C1 [Navitoclax] (partner 0.5 µM)
Procedure, shortened: as §1

Row | Cell Line | relative viability (Palbociclib + Crizotinib; first compound 0.01 µM) | relative viability (Palbociclib + Crizotinib; first compound 0.03162 µM) | relative viability (Palbociclib + Crizotinib; first compound 0.1 µM) | relative viability (Palbociclib + Crizotinib; first compound 0.3162 µM) | relative viability (Palbociclib + Crizotinib; first compound 1 µM) | relative viability (Palbociclib + Bortezomib; first compound 0.01 µM) | relative viability (Palbociclib + Bortezomib; first compound 0.03162 µM) | relative viability (Palbociclib + Bortezomib; first compound 0.1 µM) | relative viability (Palbociclib + Bortezomib; first compound 0.3162 µM) | relative viability (Palbociclib + Bortezomib; first compound 1 µM) | relative viability (Palbociclib + Pemetrexed; first compound 0.01 µM) | relative viability (Palbociclib + Pemetrexed; first compound 0.03162 µM) | relative viability (Palbociclib + Pemetrexed; first compound 0.1 µM) | relative viability (Palbociclib + Pemetrexed; first compound 0.3162 µM) | relative viability (Palbociclib + Pemetrexed; first compound 1 µM) | relative viability (Palbociclib + Navitoclax; first compound 0.01 µM) | relative viability (Palbociclib + Navitoclax; first compound 0.03162 µM) | relative viability (Palbociclib + Navitoclax; first compound 0.1 µM) | relative viability (Palbociclib + Navitoclax; first compound 0.3162 µM) | relative viability (Palbociclib + Navitoclax; first compound 1 µM)
1 | 201T | 1.01 | 0.992 | 0.922 | 0.93 | 0.806 | 1.16 | 0.954 | 1.04 | 0.946 | 0.709 | 0.343 | 0.342 | 0.358 | 0.372 | 0.283 | 1.22 | 1.2 | 1.08 | 1.08 | 1.01
2 | A549 | 0.776 | 0.65 | 0.472 | 0.362 | 0.29 |  |  |  |  |  |  |  |  |  |  | 1.09 | 0.904 | 0.667 | 0.515 | 0.335
3 | A-427 | 0.963 | 0.83 | 0.668 | 0.728 | 0.614 | 0.933 | 0.877 | 0.827 | 0.832 | 0.546 | 0.96 | 0.879 | 0.779 | 0.633 | 0.497 | 0.978 | 0.941 | 0.869 | 0.874 | 0.656
4 | ABC-1 | 0.935 | 1.16 | 0.93 | 0.832 | 0.591 | 0.323 | 0.32 | 0.232 | 0.292 | 0.394 |  |  |  |  |  |  |  |  |  | 
5 | BEN | 0.831 | 0.701 | 0.719 | 0.722 | 0.475 | 0.94 | 0.728 | 0.849 | 0.674 | 0.353 | 0.894 | 0.596 | 0.609 | 0.585 | 0.38 | 0.0758 | 0.0563 | 0.0761 | 0.0645 | 0.0615
6 | CAL-12T | 0.598 | 0.464 | 0.466 | 0.511 | 0.374 | 1.04 |  |  | 0.674 | 0.405 | 1.14 | 1.1 | 0.924 | 0.672 | 0.637 | 1.23 | 1.01 | 0.896 | 0.848 | 0.767
7 | COR-L23 | 0.707 | 0.551 | 0.427 | 0.32 | 0.287 | 0.952 | 0.795 | 0.831 | 0.721 | 0.344 | 0.183 | 0.202 | 0.201 | 0.191 | 0.203 | 0.977 | 0.759 | 0.681 | 0.544 | 0.477
8 | COR-L 105 | 0.726 | 0.555 | 0.451 | 0.447 | 0.276 | 0.759 | 0.435 | 0.486 | 0.504 | 0.363 | 1.21 | 0.802 | 0.778 | 0.697 | 0.47 | 0.943 | 0.808 | 0.669 | 0.586 | 0.401
9 | Calu-6 | 0.867 | 0.68 | 0.662 | 0.551 | 0.451 | 0.926 | 0.95 | 0.727 | 0.89 | 0.412 |  |  |  |  |  | 0.863 | 0.792 | 0.683 | 0.549 | 0.479
10 | ChaGo-K-1 | 0.961 | 0.639 | 1.07 | 1.12 | 1.13 | 1.11 | 0.828 | 1.02 | 1.14 | 1.11 | 0.259 |  | 0.261 | 0.257 | 0.26 | 1.22 | 0.463 | 1.08 | 1.09 | 1.18
11 | EBC-1 | 0.193 | 0.165 | 0.195 | 0.17 | 0.18 | 0.468 | 0.445 | 0.353 | 0.281 | 0.193 |  |  |  |  |  | 0.363 | 0.367 | 0.283 | 0.215 | 0.195
12 | EKVX | 1.13 | 0.898 | 0.818 | 0.781 | 0.499 | 1.12 | 0.916 | 1.04 | 0.989 | 0.461 | 0.392 |  | 0.353 | 0.317 | 0.243 | 1.11 | 0.826 | 0.755 | 0.764 | 0.476
13 | EMC-BAC-2 | 0.738 | 0.716 | 0.699 | 0.646 | 0.496 | 1.09 | 0.812 | 0.905 | 0.785 | 0.665 | 0.449 | 0.476 | 0.427 | 0.417 | 0.428 | 1.16 | 1.07 | 1.06 | 0.953 | 0.731
14 | EPLC-272H | 0.967 |  | 0.779 | 0.893 | 0.799 | 0.836 |  | 0.792 | 0.883 | 0.512 | 0.278 | 0.322 | 0.408 | 0.539 | 0.512 | 1.21 |  | 1.06 | 1.06 | 0.833
15 | H3255 | 1.03 | 0.688 | 0.672 | 0.689 | 0.451 | 0.912 | 0.789 | 0.624 | 0.641 | 0.317 | 0.602 | 0.59 | 0.576 | 0.488 | 0.397 | 0.632 | 0.512 | 0.406 | 0.567 | 0.338
16 | HARA | 1.04 | 0.945 | 0.836 | 0.766 | 0.499 | 1.07 | 1.02 | 1 | 0.874 | 0.389 | 0.253 | 0.265 | 0.274 | 0.262 | 0.212 | 1.15 | 1.11 | 0.997 | 0.91 | 0.662
17 | HCC-15 | 0.811 |  | 0.725 | 0.687 | 0.63 | 1.1 |  | 0.929 | 0.833 | 0.737 | 0.217 |  | 0.246 | 0.247 | 0.227 | 0.672 |  | 0.622 | 0.641 | 0.529
18 | HCC-44 | 0.738 | 0.803 | 0.789 | 0.747 | 0.85 | 0.824 | 0.804 | 0.844 | 0.836 | 0.911 | 0.626 | 0.63 | 0.592 | 0.634 | 0.666 | 0.948 | 0.953 | 1.03 | 0.99 | 1.02
